System: Clostridium botulinum
Test: Inhibition of protease activity of Clostridium botulinum BoNT/A light chain using 66-mer SNAP-25 as substrate by LC-MS analysis relative to control
Conditions: concentration not given here; call rule not given here

Going from `O=C(/C=C/c1ccc(O)c(O)c1)OC[C@@H]1C[C@@H]1COC(=O)/C=C/c1ccc(O)c(O)c1` to `O=C(/C=C/c1ccc(O)c(O)c1)Oc1ccccc1OC(=O)/C=C/c1ccc(O)c(O)c1`, the inhibition rises from 75% to 96%.

Work on `O=C(/C=C/c1ccc(O)c(O)c1)O[C@@H](C(=O)O)[C@@H](OC(=O)/C=C/c1ccc(O)c(O)c1)C(=O)O` yielded an inhibition of 64%.

System: not listed separately
Test: Inhibition of protease activity of Clostridium botulinum BoNT/A light chain using 66-mer SNAP-25 as substrate by LC-MS analysis
Conditions: not given

For `O=C(/C=C/c1ccc([N+](=O)[O-])cc1)Oc1ccccc1OC(=O)/C=C/c1ccc([N+](=O)[O-])cc1`, the IC50 was “Not Active”.
For `NCCc1ccc(OC(=O)c2ccc(O)c(O)c2)c(OC(=O)c2ccc(O)c(O)c2)c1`, the IC50 was “Not Active”.
With `CC(=O)Oc1ccc(/C=C/C(=O)Oc2ccccc2OC(=O)/C=C/c2ccc(OC(C)=O)c(OC(C)=O)c2)cc1OC(C)=O` the IC50 was “Not Active”.
For `O=Cc1ccc(/C=C/C(=O)Oc2ccccc2OC(=O)/C=C/c2ccc(C=O)cc2)cc1`, the IC50 was “Not Active”.
For `O=C(/C=C/c1ccc(CO)cc1)Oc1ccccc1OC(=O)/C=C/c1ccc(CO)cc1`, the IC50 was “Not Active”.

Same assay, conditions: read-out: IC50

`O=C(/C=C/c1ccc(O)c(O)c1)O[C@H]1CCCC[C@H]1OC(=O)/C=C/c1ccc(O)c(O)c1` and `O=C(/C=C/c1ccc(O)c(O)c1)O[C@@H]1CCCCC[C@H]1OC(=O)/C=C/c1ccc(O)c(O)c1` are the same in IC50: 3200 nM for the first, 3200 nM for the second.

First: O=C(/C=C/c1ccc(O)c(O)c1)OCc1ccccc1COC(=O)/C=C/c1ccc(O)c(O)c1
Second: O=C(/C=C/c1ccc(O)c(O)c1)OCc1ccccc1OC(=O)/C=C/c1ccc(O)c(O)c1
The IC50 of the first is 7.9-fold higher: 1100 nM for the first, 140 nM for the second.

Going from `O=C(/C=C/c1cccc(O)c1)Oc1ccccc1OC(=O)/C=C/c1cccc(O)c1` to `O=C(/C=C/c1ccc(O)c(O)c1)Oc1ccccc1OC(=O)/C=C/c1ccc(O)c(O)c1`, the IC50 falls from > 20000 nM to 490 nM.

Going from `O=C(Oc1ccccc1OC(=O)c1ccc(O)c(O)c1)c1ccc(O)c(O)c1` to `O=C(Oc1ccccc1OC(=O)c1ccc(O)cc1)c1ccc(O)cc1`, the IC50 falls from > 20000 nM to 9500 nM. The second is the more potent here.

`COC(=O)c1ccc(OC(=O)/C=C/c2ccc(O)c(O)c2)c(OC(=O)/C=C/c2ccc(O)c(O)c2)c1` and `O=C(/C=C/c1ccc(O)c(O)c1)Oc1cccc(OC(=O)/C=C/c2ccc(O)c(O)c2)c1` are within 1.5-fold of each other in IC50: 390 nM for the first, 560 nM for the second.

Going from `O=C(/C=C/c1ccc(O)c(O)c1)OC[C@@H]1C[C@@H]1COC(=O)/C=C/c1ccc(O)c(O)c1` to `O=C(/C=C/c1ccc(O)c(O)c1)OC[C@H]1CC[C@H]1COC(=O)/C=C/c1ccc(O)c(O)c1`, the IC50 rises from 130 nM to 1700 nM (13-fold). The first is the more potent here.

Compared with `CC(C)OC(=O)[C@H](OC(=O)/C=C/c1ccc(O)c(O)c1)[C@@H](OC(=O)/C=C/c1ccc(O)c(O)c1)C(=O)OC(C)C`, `CC(C)(C)C(COC(=O)/C=C/c1ccc(O)c(O)c1)COC(=O)/C=C/c1ccc(O)c(O)c1` is 21-fold lower in IC50: 2700 nM for the first, 130 nM for the second. The second is the more potent here.

First: O=C(/C=C/c1ccc(O)c(O)c1)Oc1cccc2cccc(OC(=O)/C=C/c3ccc(O)c(O)c3)c12
Second: O=C(/C=C/c1ccc(O)c(O)c1)Oc1cc2c(cc1OC(=O)/C=C/c1ccc(O)c(O)c1)OCCO2
The IC50 of the first is 6-fold lower: 50 nM for the first, 300 nM for the second. The first is the more potent here.

`O=C(/C=C/c1ccc(O)c(O)c1)OC/C=C\COC(=O)/C=C/c1ccc(O)c(O)c1` and `O=C(/C=C/c1ccc(O)c(O)c1)OCC#CCOC(=O)/C=C/c1ccc(O)c(O)c1` are within 1.5-fold of each other in IC50: 450 nM for the first, 410 nM for the second.

`O=C(/C=C/c1ccc(O)c(O)c1)O[C@H]1CCC[C@H]1OC(=O)/C=C/c1ccc(O)c(O)c1` and `O=C(/C=C/c1ccc(O)c(O)c1)Nc1ccccc1NC(=O)/C=C/c1ccc(O)c(O)c1` are within 1.5-fold of each other in IC50: 2400 nM for the first, 3300 nM for the second.
